Results as given in US6528528B2 (Warner-Lambert Company, priority 1997, dated 2003).

Key:
[1] = target: T1, rabbit reticulocyte 15-LO (Oryctolagus cuniculus, UniProt P12530); assay: Rabbit Reticulocyte 15-LO Assay (h15LO); assay type: biochemical; conditions: Table 2; 2U rabbit reticulocyte 15-LO, 174 μM linoleic acid, 15 minutes at 4° C.
T1 construct: Fifteen-lipoxygenase was obtained from phenylhydrazine-treated rabbits and purified per the method of Rapoport; from tissue; host or cells: reticulocytes of phenylhydrazine-treated rabbits
T1 sequence (P12530 1-663): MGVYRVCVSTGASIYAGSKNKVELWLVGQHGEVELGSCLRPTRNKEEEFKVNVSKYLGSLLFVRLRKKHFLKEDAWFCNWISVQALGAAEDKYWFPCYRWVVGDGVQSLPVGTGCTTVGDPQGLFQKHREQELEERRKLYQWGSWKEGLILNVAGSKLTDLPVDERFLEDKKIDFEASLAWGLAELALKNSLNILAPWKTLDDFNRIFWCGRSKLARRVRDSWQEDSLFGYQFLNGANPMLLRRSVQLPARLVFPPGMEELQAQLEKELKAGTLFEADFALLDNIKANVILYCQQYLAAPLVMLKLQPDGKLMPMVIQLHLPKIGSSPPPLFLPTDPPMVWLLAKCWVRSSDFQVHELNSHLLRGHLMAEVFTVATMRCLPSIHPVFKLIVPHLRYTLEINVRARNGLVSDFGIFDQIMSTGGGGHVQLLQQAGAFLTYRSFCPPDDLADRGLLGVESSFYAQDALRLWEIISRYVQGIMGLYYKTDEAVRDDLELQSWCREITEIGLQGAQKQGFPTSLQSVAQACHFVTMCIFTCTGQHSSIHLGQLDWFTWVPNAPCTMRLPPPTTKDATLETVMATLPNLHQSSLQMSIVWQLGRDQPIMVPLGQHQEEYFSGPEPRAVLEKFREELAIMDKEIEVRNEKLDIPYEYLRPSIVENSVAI
How it was run: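 Purified rabbit reticulocyte 15-LO (2U) incubated with inhibitor and 174 μM linoleic acid in PBS with 0.2% Na cholate for 15 minutes at 4° C. 13-HPODE quantified by peak area against 13-HODE standard curve; % inhibition relative to uninhibited reaction.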

[2] = test system: monocytes; assay: Monocyte Recruitment Assay (chemotaxis of monocytes); assay type: cell-based; conditions: Table 3; for EC50: Monocyte, read-out: Monocyte Recruitment Assay ED50
Protocol: Monocyte Recruitment Assay
The recruitment or chemotaxis of monocytes was assayed by methods well known to those skilled in the art. In particular, the method set forth in J. Clin. Invest., 1988;82:1853-1863, which is hereby incorporated by reference, was used.

[3] = test system: Rabbits fed a 0.25% cholesterol, 3% peanut oil, 3% coconut oil diet; assay: In vivo tests: aortic atherosclerotic lesions in rabbits fed a cholesterol diet; conditions: 10 mg/kg as diet admix, 12 weeks
Protocol: The entire descending thoracic aorta was assayed for its cholesteryl ester (CE), free cholesterol phospholipid content. The lipids were extracted in chloroform:methanol (2:1) by the procedure of Folch, et al. (Folch J., Lees M., Sloane-Stanley G. H. A simple method for the isolation and purification of total lipids from animal tissue, J. Biol. Chem., 1957;226:497-509) and 300-500 μL of an internal standard, i.e., 200 mg/ml solution of 4-hydroxy-cholesterol in ethyl acetate:acetone (2:1), was added to the extracts of the thoracic aortic samples. After extraction, the organic phase was dried under nitrogen and redissolved in isooctane/tetrahydro-furan (97:3). The lipid content and composition of the thoracic aorta were measured using an HPLC method.
For histologic evaluation of the aortic arch lesions and for quantification of aortic arch cross-sectional lesion area, a 1 cm segment of the ascending aorta distal to the aortic valves was fixed in 10% neutral buffered formalin for 24 hours. The vessels were dehydrated, cleared in xylene, and infiltrated with molten paraffin (<60° C.) using a Tissue Tek VIP autoprocessor (Miles Scientific, Elkhart, Ind.). The tissue segments were embedded in paraffin and sectioned at 5 μm with a Reichert-Jung microtome (Baxter, McGraw Park, Ill.). In order to obtain a thorough representation of the histologic appearance of the aortic arch lesions, 3 ribbons of 20 sections each were cut. Each ribbon of sections was spaced approximately 100 μm apart. Three pairs of sections, i.e., 1 pair from each ribbon, were affixed to cleaned 3-aminopropyltriethoxy-silane coated glass slides and stored until stained. The general histologic character was evaluated in Verhoeff's elastica stained sections.
The gross extent of atherosclerosis within the aortic arch was measured. In addition, sections of the aortic arch, a site of hypercholesterolemia-induced lesions, stained using the Verhoeff's elastica procedure were used for quantification of lesion cross-sectional. The internal elastic lamina (IEL) was identified as a blue-black ring and images of that region were collected using a digital camera. The area within the IEL was quantified using the Image Pro Plus image analysis software. The area of the lumen of the aortic arch was also quantified in a similar fashion. Lesion area was defined as the difference between the area circumscribed by the internal elastic lamina and the lumen area.
Aortic arch lesion extent was also measured. The area distal to the 1 cm segment taken for histologic evaluation to the first intercostal ostia was removed from the animal, opened longitudinally and images of the surface of the vessel was collected using a digital camera. The lesions were identified as raised, opaque areas and their area was determined using the Image Pro Plus image analysis software. The area of the entire aortic arch was also determined. The percentage of aortic arch covered by atherosclerotic lesions was calculated.

## COc1ccc(C(=O)Nc2ccccc2)cc1Nc1ccccc1 [Example 28, 4-Methoxy-3-phenylainino-N-phenyl-benzamide]
[1]
  IC50: 39 nM
other
  melting point: 194 to 195 °C
[2]
  Monocyte Recruitment Assay % @ 30 μM: 25% @ 30 μM

## COc1ccc(C(=O)Nc2ccccc2)cc1NC(=S)Nc1ccc(Cl)cc1 [Example 65, 3-[3-(4-Chlorophenyl)-thioureido]-4-methoxy-N-phenyl-benzamide]
[1]
  IC50: 42 nM
other
  melting point: 179 to 180 °C
[2]
  EC50: 22700 nM

## COc1ccc(C(=O)Nc2ccccc2)cc1NC(=S)Nc1cc(Cl)cc(Cl)c1 [Example 60, 3-[3-(3,5-Dichlorophenyl)-thioureido]-4-methoxy-N-phenyl-benzamide]
[1]
  IC50: 8.6 nM
[3]
  Aortic Arch Cross-Sectional Lesion Area (% Δ from Control): +84 % Δ from Control
  Aortic Arch Lesion Extent (% Δ from Control): +40 % Δ from Control
  Aortic Cholesteryl Ester Content (% Δ from Control): +59 % Δ from Control
other
  melting point: 195 to 197 °C
[2]
  EC50: 17600 nM

## COc1ccc(C(=O)Nc2ccccc2)cc1NC(=S)Nc1cccc([N+](=O)[O-])c1 [Example 66, 3-[3-(3-Nitrophenyl)-thioureido]-4-methoxy-N-phenyl-benzamide]
[1]
  IC50: 7 nM
other
  melting point: 188 to 189 °C
[2]
  Monocyte Recruitment Assay % @ 30 μM: 38% @ 30 μM

## COc1ccc(C(=O)Nc2ccccc2)cc1NC(=S)Nc1c(F)c(F)cc(F)c1F [Example 68, 4-Methoxy-N-phenyl-3-[3-(2,3,5,6-tetrafluoro-phenyl)-thioureido]-benzamide]
[1]
  IC50: 42 nM
other
  melting point: 170 to 174 °C
[2]
  EC50: 2300 nM
